Laboratory results from US9399123B2, “Silicone adhesive compositions” (Momentive Performance Materials Inc., priority 2012, dated 2016).

Experiment: DSC of drug crystals in adhesive (heat of melting, solid drug fraction)
Format: physicochemical
Protocol: To further study the interaction, the drug containing samples were analyzed via DSC using a TA Instruments Differential Scanning Calorimeter. The ionic silicone and PDMS-based samples containing ibuprofen, as well as pure drug were heated from room temperature to 200° C. at a rate of 5° C./min. The drug melting point, Tm was identified at 77° C. […] This evidence of differential interactions could explain the difference in ibuprofen release through these systems (FIGS. 5(b) and (c)).
The difference in drug compatibility with the ionic silicone adhesive vis-á-vis the PDMS adhesive was determined via DSC as described in Example 12 above. The free drug, and drug loaded PDMS and ionic silicone adhesive were subjected to a heating and cooling cycle under air atmosphere. The DSC thermograms are show in FIG. 9(b).
To quantify the result and the difference in compatibility, the areas were calculated as normalized heat of melting of drug crystals present in the formulation. The values were attributed to the solid fraction of distinct drug crystals present in the formulation, and the following results were obtained: […]

For C[C@]12CC[C@H]3[C@@H](CCC4=CC(=O)CC[C@@]43C)[C@@H]1CC[C@@H]2O [Testosterone], the “Heat of Melting” value (DSC, normalized heat of melting of drug crystals) was 73 J/gm and the “% Solid drug fraction” value (from heat of melting relative to free testosterone (100% assigned)) was 100%.
